Results published in patent US20140239906A1, “REDOX-ACTIVE LIGAND-BASED TRANSITION METAL COMPLEX FLOW BATTERIES” (Sandia Corporation, priority 2013, published 2014).

What was measured:
[1] = Stability under air (solid and acetonitrile solution), CV and UV-vis; format: physicochemical
Text: Long-term stability is a key consideration in the development of RFB systems and recent research has included extensive investigations of state-of-the-art aqueous RFB systems. Factors affecting stability and the decay of capacity including membrane chemistry, thermal effects, gas evolution and electrode corrosion have been identified and this remains an active research area. In comparison, the long-term stability of non-aqueous RFBs remains to be investigated. […] To investigate its stability in solution, a 1 mM acetonitrile solution was analyzed, stored for a period of one week under air atmosphere, and subsequently analyzed. […] Long-term studies to investigate the stability of the membrane, electrode and electrolytes have been initiated.

[2] = Solubility in acetonitrile by UV-vis spectroscopy; format: physicochemical; settings: absorbance at 568 nm, Beers law
Description: Solutions were prepared by mixing roughly equal volumes of metal complex and solvent. The resulting black solution was concentrated with a stream of N2 until a slight crust began to form, which was re-dissolved with warming and agitation. The sample was then centrifuged at 8000 RPM for two hours and allowed to stand overnight. Concentrations were determined using absorbance at 568 nm, ε568=4540 M^−1cm^−1.

[3] = Cyclic voltammetry (redox potentials); format: physicochemical; settings: 20 mM in CH3CN with 0.1 M [TBA][PF6], 250 mV/s, room temperature; mid-point of anodic and cathodic peak potentials
Text: Ferrocene was used as an internal standard.
CV of 1b, shown in FIG. 7, is similar to that reported previously for [V(mnt)3]^2− with various cations. Three reversible waves corresponding to the 4^−/3^−, 3^−/2^− and 2^−/1^− redox couples are observed at −1.41 V, −0.227 V and 0.856 V vs. SHE, respectively. Redox potential values reported herein correspond to the mid-point between the anodic and cathodic peak potentials of a cyclic voltammogram. […] Thus, a battery cell constructed using 1 as both anolyte and catholyte has a theoretical cell potential of […] and a theoretical energy density of 13 W·h·L^−1. However, bulk reduction of [V(mnt)3]^2− to [V(mnt)3]^3− in the anodic half-cell before charging would result in a theoretical cell potential and energy density of 2.3V and 28 W·h·L^−1, respectively. These values compare favorably to previously reported non-aqueous RFB electrolytes. A RFB based on [V(mnt)3]^2− solutions would also benefit from having the same chemical species in both half-cells, a strategy that has been employed previously to prevent irreversible self-discharge from crossover of active redox species through the membrane. This feature then also enables the use of inexpensive, microporous separators that are not ion-selective.

[4] = Static cell (H-cell) galvanostatic charge-discharge cycling; settings: 20 mM in acetonitrile, 0.1 M [TBA][PF6]; through cycle 16
Description: Cyclic voltammetry (CV) was carried out using a Bio-Logic SP-200 potentiostat, a glassy carbon working electrode, a Pt wire counter electrode and a silver-wire pseudo reference electrode. Ferrocene was used as an internal standard. For static cell battery testing, an H-cell was used containing 20 mM anolyte/catholyte and 100 mM [NBu4][PF6] supporting electrolyte. Charge and discharge currents were 1 mA and 0.1 mA, respectively. Graphite electrodes (POCO) having a 2 cm^2 active area and a Tonen V25EKD separator were used.
A two-compartment cell with non-flowing solutions (i.e., “static cell”) was assembled to assess the charge-discharge characteristics of [V(mnt)3]^2− in a non-aqueous environment. Both compartments contained a 20 mM solution of 1b in acetonitrile with 0.1 M tetrabutylammonium hexafluorophosphate as supporting electrolyte. Two graphite electrodes (POCO) with 2 cm^2 active areas and a V25EKD separator (Tonen) were used. Because the discharged cathode and anode complexes are both in the 2^− oxidation state, it is presumed that the cathode complex converts to the 1^− state and the anode complex converts to the 3^− state during charge.

## C[N+](C)(C)C.C[N+](C)(C)C.N#CC([S-])=C([S-])C#N.N#CC([S-])=C([S-])C#N.N#CC([S-])=C([S-])C#N.[V+4] [1a]
[1]; 1 mM acetonitrile solution, one week under air atmosphere
  stability in solution (CV and UV-vis spectroscopy): unchanged
[1]; as prepared, stored under air
  stability as prepared to ambient oxygen and moisture: no decomposition was observed

## CC[N+](CC)(CC)CC.CC[N+](CC)(CC)CC.N#CC([S-])=C([S-])C#N.N#CC([S-])=C([S-])C#N.N#CC([S-])=C([S-])C#N.[V+4] [1b]
[2]
  maximum solubility: ~900 mM
[3]
  redox potential 2−/1− couple: 0.856 V vs. SHE
  redox potential 3−/2− couple: −0.227 V vs. SHE
  redox potential 4−/3− couple: −1.41 V vs. SHE
[4]
  electrochemical yield (faradaic efficiency) of charge cycles, stabilized: 20-25%
